This note sets out measurements from the METLIN SMRT retention time set (Domingo-Almenara et al. 2019).

The nature of this data set: gradient 5% acetonitrile 3 min, to 50% in 2 min, to 85% in 15 min, held 3 min, 100 µL/min. To be noted: column: Zorbax Extend-C18 2.1 x 50 mm; eluents: water / acetonitrile, 0.1% formic acid. The procedure, abridged: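 Using water and acetonitrile that each contained 0.1% formic acid, mixtures of ~100 pure standards were separated at 100 μL/min on a Zorbax Extend-C18 column (2.1 × 50 mm, 1.8 μm). The HPLC fed a quadrupole time-of-flight mass spectrometer working in positive and negative ionization mode, with dead and dwell volumes of 40 μL and 900 μL. Data were acquired over 3 months. Retention time was read from computationally picked adduct peaks after manual inspection of each.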
As to `CCc1ccc(Oc2cc(N3CCC(C(=O)NC4CCCCCC4)CC3)ncn2)cc1`, the RP-LC retention time came to 1110 s. On to `CC(C)N1C(=O)c2cccnc2Sc2cc(NC(=O)c3ccc(Cl)cc3)ccc21`, for which the RP-LC retention time is 964 s. Consider `O=C(c1c(F)cccc1Cl)N1CCN(S(=O)(=O)c2cc3c4c(c2)CCC(=O)N4CCC3)CC1`, for which the RP-LC retention time came out at 828 s. In turn, `Cc1ccc2cc(CCC(=O)NCCCN3CCCC3=O)c(=O)[nH]c2c1` returned an RP-LC retention time of 623 s. In turn, `CCN(CC)c1nc2cc(C(=O)OC)ccc2c(=O)n1-c1ccc2c(c1)OCO2` displayed an RP-LC retention time of 1080 s. Then `COc1cccc(CNc2nc3ccncc3n(C(C)C)c2=O)c1OC`, with 644 s. In turn, `Cc1cccc(C2CCCN2C(=O)c2c(Cl)cnn2C)c1` (stereo not drawn) displayed an RP-LC retention time of 891 s. With `CCOc1ccc(NC(=O)Cn2c(=O)nc(N3CCCC(C)C3)c3ccccc32)cc1` (stereo not drawn), the RP-LC retention time came to 845 s.

`O=c1c2cc(-c3ccc(F)cc3)nn2ccn1Cc1noc(CN2CCCCCCC2)n1` returned an RP-LC retention time of 719 s.

With `Cn1nc(N2CCC(NC(=O)Cc3ccncc3)C2)ccc1=O` (stereo not drawn), the RP-LC retention time is 549 s.

For the compound `O=C(Cn1c(=O)cc(-c2nc(-c3ccccc3)no2)c2ccccc21)N1CCCC1`, the RP-LC retention time came to 1000 s.

In turn, `CCCS(=O)(=O)NCc1ccc2c(c1)CCN2C(=O)c1cccc(C)c1` returned an RP-LC retention time of 899 s. Then `CCC1Oc2ccc(S(=O)(=O)N3CCC(C(=O)NCc4ccccc4)CC3)cc2NC1=O` (stereo not drawn), with 824 s. For `CN1CCCc2cc(C(=O)NCc3ccccc3)sc21` the value was 882 s; for `Cc1nc(-c2cc(S(=O)(=O)N3CCN(c4ccccc4F)CC3)c(C)s2)cs1`, 1210 s; for `Cn1cc(C2c3nccn3CCCN2C(=O)c2cccn2C)cn1` (stereo not drawn), 564 s. For `NCCC1CCN(C(=O)Nc2cccc(F)c2)CC1` the value was 595 s. `CCOc1ccccc1CNc1nc2ccncc2n(CC)c1=O` showed an RP-LC retention time of 683 s. For `CC1CCN(C(=O)CSCC(=O)Nc2nc(-c3ccc4c(c3)OCO4)cs2)CC1` the value was 890 s; for `COC(=O)c1ccc(C(=O)NCC(O)(c2ccccc2)C(F)(F)F)cc1` (stereo not drawn), 842 s. For `Cc1noc(-c2cc(S(=O)(=O)N3CCC(C)CC3)c(C)s2)c1C` the value was 1160 s. Then `O=C(NCCc1noc(C2CC2)n1)C1CCCC1`, with 699 s; and `O=C(Nc1ccc(Br)cc1F)C1CCCN(C(=O)c2cccc(C(F)(F)F)c2)C1` (stereo not drawn), with 1060 s; and `COc1cccc2sc(N(Cc3ccco3)C(=O)c3cc(C)nn3C)nc12`, with 927 s. For `O=C(Nc1cccc(Oc2ccccn2)c1)c1c2c(nn1C1CCS(=O)(=O)C1)CCC2` (stereo not drawn), the RP-LC retention time stood at 807 s. For `O=C(NC1CCCCC1N1C(=O)CSC1=O)c1cc(Cl)ccc1Cl` (stereo not drawn) the value was 810 s; for `CCN(CC)C(=O)N1CCC(c2noc(-c3ccccc3)n2)C1` (stereo not drawn), 892 s; for `Cc1ccc(S(=O)(=O)N2C(=O)CCC2C(=O)NCc2nc(-c3cccc(C)c3)no2)cc1` (stereo not drawn), 910 s. Then `CC(C)OCCCNC(=O)CN1C(=O)CCn2nc(-c3cn(C)c4ccccc34)cc21`, with 738 s. Regarding `Cc1cccc(N2CCN(C(=O)C3CCN(c4cnc5nccnc5c4)CC3)CC2)c1C`, the RP-LC retention time was found to be 881 s. Then `CCOC(=O)c1ccc2nc(C(F)(F)F)nc(NCCc3ccc(OC)c(OC)c3)c2c1`, with 1140 s; and `COc1ccccc1CNC(=O)Cn1c(=O)cc(-c2nc(C)no2)c2ccccc21`, with 836 s.

Consider `O=C1NCCc2ccc(NC(=O)C3(c4ccc(F)cc4)CC3)cc21`, for which the RP-LC retention time is 706 s.
